Tests used:
Bax protein = test: Bax activation: retention of GFP-Bax fluorescence after digitonin permeabilization, flow cytometry; assay type: cell-based, human; conditions: clone 10; coupled test FL1 (GFP) / FL3 (DNA); FIG. 11
Procedure: (§1) FIG. 11A-E represents the coupled measurement of Bax activation and the cell cycle. The clone 10 cells stably expressing the GFP-Bax fusion protein are treated with various drugs acting as pro-apoptotic agents and/or cytostatic agents. The measurement of Bax activation is carried out as described previously by evaluation of the retention of fluorescence after permeabilization with digitonin. In the permeabilization buffer, propidium iodide (0.4-0.8 mg/ml) was added and the cells were incubated for 30 minutes at 4° C. The distribution of the cells in the various phases of the cell cycle is read on the basis of their intensity of fluorescence in the red (PI).
The model implemented uses a clone designated “clone 10”.
The test is then based on the observation, under the fluorescence microscope or by flow cytometry, of the cells in which Bax is not activated and thus is distributed uniformly in the cytosol and of the cells in which Bax has been activated following an induction of apoptosis. In the latter case, the fluorescent signal is aggregated around the mitochondria and the Bax protein is thus considered as “bound”.
The cells are then resuspended in an intracellular saline solution in the presence of 50 μM of digitonin and then analyzed by flow cytometry and the fluorescence of the GFP is measured in channel FL1.

caspase 2 = test: Distribution of nuclear-anchored caspase 2 probe in HeLa cells; assay type: cell-based, human; conditions: transiently transfected, 3 hours, untreated cells show nuclear distribution, FIG. 10e
From the text: Fusion proteins GFP-cb5TMRR and GFP-SNAP(80-136) were constructed which carry, in the linker connecting the fluorescent protein and the anchoring segment, the caspase 8 consensus sensing site (IETD) which is principal “initiating” pro-apoptotic caspase. In the same manner, a fusion protein GFP-H2B was constructed which contains, in the sequence linker, the caspase 2 consensus sensing sequence (VDVAD), which is a protease with nuclear localization. The sensing components thus used have as sequences SEQ ID No. 6 and 14 (for caspase 8), and SEQ ID No. 12 (for caspase 2). These proteins are cleavable and the quantification of the proteolytic activity can be carried out via cytometry as shown for caspase 3 (FIG. 10).

clone 10 cells = test: Cell cycle distribution by propidium iodide, coupled with the Bax activation test; assay type: cell-based, human; conditions: propidium iodide 0.4-0.8 mg/ml, 30 minutes at 4° C., FIG. 11
Procedure: as §1, with “(PI). […] Moreover, it makes it possible to evaluate if Bax activation takes place in a preferential phase of the cell cycle.” for “(PI).”
The measurement of the cell cycle can be carried out in a traditional way by adding to the permeabilized cell suspension a sufficient concentration of propidium iodide (0.4-0.8 mg/ml). The cells are incubated for 30 minutes to allow time for PI to become intercalated in the genomic DNA, and then analyzed using flow cytometry by simultaneously measuring “green” fluorescence (FL1=the recombinant biosensor signal based on GFP or another fluorescent protein emitting in the green range) and “red” fluorescence (FL3=the intensity of PI corresponding to the chromatin content of each cell, which enables the cell cycle to be read).

caspase 3 [1] = test: Cleavage and redistribution of caspase 3 probes, confocal and fluorescence microscopy; assay type: cell-based, human
Procedure: The quantification of cleavage and of the diffusion of the fluorescent signal in the cytosol is carried out by measuring the increase in the respectively green and red fluorescent signal in a region of the nucleus.
The quantification of the cleavage and of the diffusion of the fluorescent signal respectively from the nucleus to the cytosol for the protein H2B-DEVD-GFP and from the cytosol to the nucleus for the protein HcRed-DEVT-cb5 is carried out by measuring the increase in the fluorescent signal, respectively green in a cytosolic region of the cell and red in a region of the nucleus. e) Evaluation by flow cytometry of the functionality of the probe by quantification of the percentage of retention of fluorescence after permeabilization in a population of HeLa cells transfected transiently with the protein H2B-DEVD-GFP and its non-cleavable control.
The cells are cultivated on glass slides and transfected with the vector described previously; they are then mounted in a saline medium in an incubation chamber and observed under the fluorescence microscope. Before or during the observation, they are treated with the pro-apoptotic agent.

caspase 3 [2] = test: Caspase 3 activation in a xenografted clone 23 tumor in nude mice, confocal microscopy; assay type: in vivo; conditions: mouse with xenografted clone 23 tumor; 40 mg/kg/day for 4 days; FIG. 12c
From the text: FIG. 12 represents the xenograft of lines expressing a fluorescent biosensor. a) Confocal microscopy image (10×) of a section of a solid tumor generated by a subcutaneous xenograft of clone 10 cells (stably expressing GFP-Bax) in nude mice. Marking of nuclei (Hoechst) and cells with activated Bax (GFP-Bax). On the right, the detail of a cell with GFP-Bax relocalized to the mitochondria (GFP-Bax) and corresponding nuclear marking (Hoechst). b) Confocal microscopy image (10×) of a section of a solid tumor generated by a subcutaneous xenograft of clone 23 cells (stably expressing the protein copGFP-DEVD-cb5TMD-RR) in nude mice. Marking of nuclei (Hoechst) and distribution of the biosensor (caspase 3 probe).
These lines (designated clone 10 and clone 23, respectively), injected subcutaneously in “nude” mice form solid fluorescent tumors after a few days.

CN[C@@H]1C[C@H]2O[C@@](C)([C@@H]1OC)n1c3ccccc3c3c4c(c5c6ccccc6n2c5c31)C(=O)NC4 [staurosporine]
Bax activation in relation to the phase of the cell cycle (Bax protein): induction of Bax activation in any phase of the cycle
Distribution of fluorescent protein GFP-IETD-H2B (caspase 2): cytosolic distribution
Effect on the cell cycle (distribution in phases G1, S, G2/M) (clone 10 cells): no effect on the cycle
Cleavage of probes GFP-DEVD-ANT and HcRed-DEVD-Cb5RR (caspase 3 [1]; human HeLa cells, transiently co-transfected, confocal microscopy, FIG. 8e-f): Release of the fluorescent protein in the cytosol following its cleavage
Distribution of fluorescent protein H2B-DEVD-GFP (caspase 3 [1]; human HeLa cells, transiently transfected, untreated cells show nuclear distribution, FIG. 9c): cytosolic distribution
Cleavage of probe GFP-DEVD-SNAP(80-136) (caspase 3 [1]; human SH-SY5Y neuroblastoma cells, transiently transfected, confocal microscopy, FIG. 7c): Release of the fluorescent protein in the cytosol following its cleavage

CC[C@@]1(O)C(=O)OCc2c1cc1n(c2=O)Cc2cc3ccccc3nc2-1 [camptothecin]
Bax activation in relation to the phase of the cell cycle (Bax protein): Bax activation preferentially in phase Gl
Effect on the cell cycle (distribution in phases G1, S, G2/M) (clone 10 cells): blockage in phase S

COc1cccc2c1C(=O)c1c(O)c3c(c(O)c1C2=O)C[C@@](O)(C(C)=O)C[C@@H]3O[C@H]1C[C@H](N)[C@H](O)[C@H](C)O1 [daunorubicin]
Bax activation in relation to the phase of the cell cycle (Bax protein): Bax activation in phase S
Effect on the cell cycle (distribution in phases G1, S, G2/M) (clone 10 cells): accumulation in phase G2

COc1cc([C@@H]2c3cc4c(cc3[C@@H](O[C@@H]3O[C@@H]5CO[C@@H](C)O[C@H]5[C@H](O)[C@H]3O)[C@H]3COC(=O)[C@H]23)OCO4)cc(OC)c1O [etoposide]
Caspase 3 activation in tumor cells (cytosolic distribution of fluorescence) (caspase 3 [2]): appearance of cells having activated caspase 3

CN[C@H]1CCc2cc(OC)c(OC)c(OC)c2-c2ccc(OC)c(=O)cc21 [colcemid]
Effect on the cell cycle (distribution in phases G1, S, G2/M) (clone 10 cells): accumulation in phase G2

— patent US20120040389A1 (Institut National de la Sante et de la Recherche Medicale …, priority 2003, published 2012)
